Experimental data published in paper PMC9851200, “Multiparameter phenotypic screening for endogenous TFEB and TFE3 translocation identifies novel chemical series modulating lysosome function” (Autophagy, 2022).

Key:
[1] = tested on: GFP-Ex1HTT74Q; experiment: HTT aggregation assay, PC12 cells expressing GFP-Ex1HTT74Q; assay type: cell-based; conditions: 48 h, 16 nM - 2 µM
Experimental: PC12 cells stably expressing GFP-tagged exon 1 of HTT with a 74-repeat polyglutamine-expansion (GFP-Ex1HTT74Q) under tetracycline-inducible promoter control [41]were maintained at 37°C and 5% CO2 in RPMI medium (Sigma Aldrich, R8758) supplemented with 10% horse serum (Sigma Aldrich, H1138), 5% fetal bovine serum, 1% Glutamine (Sigma Aldrich, G7513), 1% Pen-Strep (Sigma, P0781), 0.1 mg/mL G418 (ThermoFisher, 10,131,035), and 0.07 mg/mL hygromycin B (ThermoFisher, 10,687,010). Cells were plated at a density of 10,000 per well in 96-well black cycloolefin thin-bottom plates (Perkin Elmer, 6,055,300) coated with collagen IV (Sigma Aldrich, C5533). After 5 h, expression of GFP-Ex1HttQ74 was induced with doxycycline (100 ng/mL; Sigma Aldrich, D3447). After 16 h of induction, compounds (final concentrations 16 nM – 2 µM) were added in fresh medium with doxycycline (100 ng/ml). Final concentration of DMSO (Sigma Aldrich, D8418) was 0.1% in all wells. After 48 h of incubation in the presence of compound, cells were washed once in PBS and fixed with 4% paraformaldehyde (Thermofisher Scientific, 28,908) supplemented with 10 µg/mL Hoechst 33,342 (ThermoFisher Scientific, H3570) for 15 min. […] Image feature extraction was carried out using CellProfiler software. Data aggregation, normalization and distance score calculations were carried out using StratoMineR software.

[2] = target: T1, PRKD2 (Homo sapiens, UniProt Q9BZL6); experiment: KiNativ in-cell kinase binding, PRKD2; set-up: endogenous in cells; host or cells: SH-SY5Y
T1 sequence (Q9BZL6 1-878): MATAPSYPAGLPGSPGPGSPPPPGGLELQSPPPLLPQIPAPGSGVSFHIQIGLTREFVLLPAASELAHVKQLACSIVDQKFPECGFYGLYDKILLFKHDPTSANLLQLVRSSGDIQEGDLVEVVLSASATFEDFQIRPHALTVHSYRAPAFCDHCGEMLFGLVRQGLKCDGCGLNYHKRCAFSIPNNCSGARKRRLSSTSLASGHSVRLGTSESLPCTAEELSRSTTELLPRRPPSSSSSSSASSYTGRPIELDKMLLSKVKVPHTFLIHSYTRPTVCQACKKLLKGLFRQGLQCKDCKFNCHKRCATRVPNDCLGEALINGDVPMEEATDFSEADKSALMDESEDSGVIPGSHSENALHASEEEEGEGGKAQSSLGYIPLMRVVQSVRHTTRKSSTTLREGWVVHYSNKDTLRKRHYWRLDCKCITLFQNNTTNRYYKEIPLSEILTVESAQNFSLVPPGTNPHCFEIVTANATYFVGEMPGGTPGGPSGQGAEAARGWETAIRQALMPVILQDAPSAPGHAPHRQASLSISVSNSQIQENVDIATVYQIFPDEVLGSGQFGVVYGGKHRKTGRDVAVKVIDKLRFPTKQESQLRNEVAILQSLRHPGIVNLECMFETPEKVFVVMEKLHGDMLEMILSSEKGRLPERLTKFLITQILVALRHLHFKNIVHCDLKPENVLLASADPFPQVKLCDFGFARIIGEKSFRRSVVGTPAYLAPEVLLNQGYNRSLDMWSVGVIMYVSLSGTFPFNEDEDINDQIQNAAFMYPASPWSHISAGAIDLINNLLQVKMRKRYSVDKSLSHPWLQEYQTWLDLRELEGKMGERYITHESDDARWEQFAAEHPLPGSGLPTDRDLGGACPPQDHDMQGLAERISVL
Description: As KINOMEscan is an in vitro assay, and as different cell types have variable kinase expression profiles we sought to determine the kinase binding profile in our SH-SY5Y TFEB-relocalization cell model. […] Bound kinases were pulled down and analyzed by mass spectrometry to determine the in situ kinase binding profile for each compound.

[3] = target: STK10/LOK (Homo sapiens, UniProt O94804); assay type: binding
[4] = target: MINK1/MINK (Homo sapiens, UniProt Q8N4C8); assay type: binding
Chain of MINK1/MINK (Q8N4C8 whole entry): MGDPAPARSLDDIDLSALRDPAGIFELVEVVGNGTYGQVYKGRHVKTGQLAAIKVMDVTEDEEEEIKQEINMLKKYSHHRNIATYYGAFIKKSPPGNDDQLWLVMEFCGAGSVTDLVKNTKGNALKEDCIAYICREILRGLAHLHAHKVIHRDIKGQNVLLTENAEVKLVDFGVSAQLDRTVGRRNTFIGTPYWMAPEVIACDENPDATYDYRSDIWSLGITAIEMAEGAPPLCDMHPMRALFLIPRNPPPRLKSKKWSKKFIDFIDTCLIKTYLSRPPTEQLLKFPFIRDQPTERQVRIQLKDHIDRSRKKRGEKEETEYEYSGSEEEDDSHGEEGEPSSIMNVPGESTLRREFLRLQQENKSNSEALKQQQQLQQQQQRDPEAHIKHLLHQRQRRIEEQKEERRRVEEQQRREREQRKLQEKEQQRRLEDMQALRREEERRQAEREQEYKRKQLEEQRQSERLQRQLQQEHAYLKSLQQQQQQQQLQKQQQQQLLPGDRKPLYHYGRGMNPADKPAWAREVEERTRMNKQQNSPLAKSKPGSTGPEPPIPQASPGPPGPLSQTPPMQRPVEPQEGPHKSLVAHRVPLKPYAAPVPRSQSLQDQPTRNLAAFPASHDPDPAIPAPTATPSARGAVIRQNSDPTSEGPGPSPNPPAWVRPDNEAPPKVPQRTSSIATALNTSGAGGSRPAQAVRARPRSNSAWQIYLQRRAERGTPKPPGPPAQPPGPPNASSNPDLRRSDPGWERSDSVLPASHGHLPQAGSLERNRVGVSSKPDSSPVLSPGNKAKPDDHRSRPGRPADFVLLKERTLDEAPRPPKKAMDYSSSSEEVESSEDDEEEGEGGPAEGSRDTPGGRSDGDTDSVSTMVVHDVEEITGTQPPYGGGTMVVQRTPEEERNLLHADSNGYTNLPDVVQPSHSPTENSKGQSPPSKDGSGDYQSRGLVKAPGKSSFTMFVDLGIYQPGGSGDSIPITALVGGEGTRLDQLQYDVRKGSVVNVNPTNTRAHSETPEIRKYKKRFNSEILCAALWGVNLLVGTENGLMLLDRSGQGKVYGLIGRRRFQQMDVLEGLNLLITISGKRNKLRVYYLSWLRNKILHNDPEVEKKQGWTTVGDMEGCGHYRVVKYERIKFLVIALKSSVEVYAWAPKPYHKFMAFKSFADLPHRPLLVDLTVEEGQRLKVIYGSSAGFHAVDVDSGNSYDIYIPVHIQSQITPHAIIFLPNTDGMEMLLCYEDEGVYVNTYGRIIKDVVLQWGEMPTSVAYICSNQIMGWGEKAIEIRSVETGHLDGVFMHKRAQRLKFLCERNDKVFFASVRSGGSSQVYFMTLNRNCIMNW

Chain of STK10/LOK (O94804 whole entry): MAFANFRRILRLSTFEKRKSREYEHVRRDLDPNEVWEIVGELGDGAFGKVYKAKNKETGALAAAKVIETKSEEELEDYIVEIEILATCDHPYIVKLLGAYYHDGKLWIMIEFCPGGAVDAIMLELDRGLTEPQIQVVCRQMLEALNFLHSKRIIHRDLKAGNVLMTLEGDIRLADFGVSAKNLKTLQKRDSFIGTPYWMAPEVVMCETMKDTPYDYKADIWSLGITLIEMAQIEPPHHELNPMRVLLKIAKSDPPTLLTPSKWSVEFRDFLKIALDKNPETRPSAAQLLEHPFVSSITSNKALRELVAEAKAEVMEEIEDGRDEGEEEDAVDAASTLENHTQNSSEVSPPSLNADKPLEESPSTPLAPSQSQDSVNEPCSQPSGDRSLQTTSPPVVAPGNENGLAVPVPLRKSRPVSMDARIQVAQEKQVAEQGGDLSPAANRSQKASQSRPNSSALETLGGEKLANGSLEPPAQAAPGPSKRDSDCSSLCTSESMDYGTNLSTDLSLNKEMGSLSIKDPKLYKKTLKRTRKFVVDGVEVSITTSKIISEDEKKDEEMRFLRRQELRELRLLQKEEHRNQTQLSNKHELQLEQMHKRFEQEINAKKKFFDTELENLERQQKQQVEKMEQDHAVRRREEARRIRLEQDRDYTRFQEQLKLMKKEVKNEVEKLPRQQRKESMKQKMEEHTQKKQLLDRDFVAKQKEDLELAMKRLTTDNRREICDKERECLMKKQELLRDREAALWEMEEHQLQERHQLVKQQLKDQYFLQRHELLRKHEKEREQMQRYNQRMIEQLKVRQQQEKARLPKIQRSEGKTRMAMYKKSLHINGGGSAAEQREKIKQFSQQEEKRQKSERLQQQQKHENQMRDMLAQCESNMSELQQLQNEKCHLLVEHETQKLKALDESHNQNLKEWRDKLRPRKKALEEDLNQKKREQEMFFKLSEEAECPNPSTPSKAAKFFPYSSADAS

## Cc1cccc(-c2nc(Nc3ccc4ncsc4c3)c3ccccc3n2)n1 [NK140]
[1]
  HTT fluorescent aggregates / cells bearing aggregates (in words): no reduction in fluorescent aggregates
[2]; 2µM, SH-SY5Y cells, Labeling Site Lys1, […]
  inhibition at 2 µM: 51.7%
[2]; SH-SY5Y cells treated 2 h
  KiNativ binding of PRKD2 (in words): bound

## Cc1cccc(-c2nc(N(C)c3ccc4ncsc4c3)c3ccccc3n2)n1 [NK-161]
[3]
  KINOMEscan STK10/LOK: 19
[4]
  KINOMEscan MINK1/MINK: 22
